This is an account of results in ChEMBL document CHEMBL5291721, “A preclinical secondary pharmacology resource illuminates target-adverse drug reaction associations of marketed drugs” (Nat Commun, 2023).

The structures appear in SMILES notation. A value given as a limit tells only on which side of the number the result lay.

The AC50 is the concentration giving half of the maximal activity seen. A lower AC50 goes with greater potency.

The target of the test is T1, Alpha-1A adrenergic receptor (Homo sapiens, UniProt P35348).
T1 sequence (P35348 whole entry): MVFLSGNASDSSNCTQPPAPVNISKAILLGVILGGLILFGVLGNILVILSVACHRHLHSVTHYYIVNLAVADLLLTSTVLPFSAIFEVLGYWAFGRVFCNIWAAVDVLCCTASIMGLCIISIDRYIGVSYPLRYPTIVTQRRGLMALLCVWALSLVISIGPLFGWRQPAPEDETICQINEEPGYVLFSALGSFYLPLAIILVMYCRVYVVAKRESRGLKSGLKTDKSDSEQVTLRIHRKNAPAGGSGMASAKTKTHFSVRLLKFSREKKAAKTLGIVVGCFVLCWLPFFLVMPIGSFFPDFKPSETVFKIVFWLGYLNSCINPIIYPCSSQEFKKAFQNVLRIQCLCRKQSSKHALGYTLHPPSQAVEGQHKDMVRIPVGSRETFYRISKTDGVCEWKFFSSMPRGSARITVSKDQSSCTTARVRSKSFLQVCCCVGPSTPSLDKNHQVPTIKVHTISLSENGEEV
Type of test: functional, cell-based.
Note: assay procedure not described here.

For the molecule `NCCCC(O)(P(=O)(O)O)P(=O)(O)O` [ALENDRONIC ACID], the concentration at half-maximal activity (AC50) is above 30 µM.
